According to patent US11867689B2, “Engineered renal tissues, arrays thereof, and methods of making the same” (Organovo, Inc., priority 2014, dated 2024):

Assays:
3D renal tubule model [1] = assay: histology of treated 3D renal tubule models; type: cell-based, human; conditions: 50 ng/mL TGFβ; FIG. 22D
[2] = system: 3D renal tubule model (interstitial tissue and epithelial tissue); type: cell-based, human
3D renal tubule model [3] = type: cell-based, human
Text: To reduce the thickness and cellularity of the interstitial layer, the cell ratio was changed to 50% fibroblasts/50% HUVEC the concentration of the cells was 1.25×10^8 cells/mL. The interstitial layer of the renal proximal tubule model is composed of renal fibroblasts and HUVECs in Novogel® 2.0. […] E-cadherin (green) at the lateral membranes between RPTECs corresponds to tight junctions (FIGS. 9A, B and C). Further, the basement membrane corresponding to the interstitial layer produces collagen (FIGS. 9A and B; stained with red). H & E staining is shown (FIG. 10A), and brush borders are indicated (FIG. 11A, arrows). Trichrome staining indicates collagen secretion (FIGS. 10B, blue and 11B, arrows), and CD31 staining indicates the presence of HUVEC networks (FIG. 12, asterisks). […] As a positive control, hTERT-RPTEC cells cultured as a monolayer in 2D were assessed. As a negative control, bioprinted renal interstitial tissues without epithelium were also assayed to verify that the detected GGT activity was epithelial-specific. At culture day 3, 10, 14, 21, or 28, 2D hTERT-RPTEC, 3D interstitium tissues, or 3D bioprinted tubule tissues were homogenized and assessed for functional GGT enzymatic activity using a colorimetric assay available from Sigma-Aldrich. […]

[4] = system: interstitial tissue alone
[5] = system: epithelial layer comprising primary cells (070615-RPTEC); assay: GGT activity, renal tubule model with primary epithelial layer; type: cell-based, human; conditions: primary cells (070615-RPTEC) compared with hTERT-RPTEC; FIG. 23B
Experimental: To assess the maturity and function of the epithelial component of the 3D bioprinted tubule model, tissues were homogenized and assayed for gamma glutamyl-transferase (GGT) activity. […] As a positive control, hTERT-RPTEC cells cultured as a monolayer in 2D were assessed. […] At culture day 3, 10, 14, 21, or 28, 2D hTERT-RPTEC, 3D interstitium tissues, or 3D bioprinted tubule tissues were homogenized and assessed for functional GGT enzymatic activity using a colorimetric assay available from Sigma-Aldrich.

TGFβ: listed among common cytotoxic agents; treatment at 50 ng/mL increased fibrosis
Masson's trichrome staining histology (fibrosis) (3D renal tubule model [1]): increase in fibrosis without the overt cell death

C[C@@H]1[C@H](O)[C@@H](C)/C=C/C=C/C=C/C=C/C=C/C=C/C=C/[C@H](O[C@@H]2O[C@H](C)[C@@H](O)[C@H](N)[C@@H]2O)C[C@@H]2O[C@](O)(C[C@@H](O)C[C@@H](O)[C@H](O)CC[C@@H](O)C[C@@H](O)CC(=O)O[C@H]1C)C[C@H](O)[C@H]2C(=O)O [AmpB, amphotericin B]
toxicity by alamarBlue assay [2]: dose dependent cytotoxicity | GGT activity (3D renal tubule model [3]): dose dependent reduction in GGT activity | toxicity by alamarBlue assay [4]: resistant

N.N.[Cl][Pt][Cl] [cisplatin]
GGT activity (3D renal tubule model [3]): dose dependent reduction in GGT activity | sensitivity in the GGT assay, primary versus immortalized cells [5]: enhanced sensitivity
